{"source": "paper PMC11621054", "about": "“Biological evaluation of semi-synthetic isoindolinone isomers produced by Stachybotrys chartarum” (Frontiers in Fungal Biology, 2024)", "key": {"[1]": {"tested_on": "human α-thrombin", "parameters": "method as in Steinert et al., 2022", "details": "500 nM; ref Steinert et al., 2022; cited from earlier work"}, "[2]": {"biological_target": "T1, human Factor Xa (Homo sapiens, UniProt P00742)", "T1 construct": "human Factor Xa, HFXA, > 95% purity; Molecular Innovations; purchased Molecular Innovations HFXA", "T1 sequence (P00742 235-488 limits assumed)": "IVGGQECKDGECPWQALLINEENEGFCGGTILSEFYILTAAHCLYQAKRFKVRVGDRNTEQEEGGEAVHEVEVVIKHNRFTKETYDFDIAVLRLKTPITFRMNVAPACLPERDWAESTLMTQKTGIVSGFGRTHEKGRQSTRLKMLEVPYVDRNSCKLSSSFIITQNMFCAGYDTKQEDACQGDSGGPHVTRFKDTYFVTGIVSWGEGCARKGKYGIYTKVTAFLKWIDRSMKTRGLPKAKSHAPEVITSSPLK", "T1 sequence (P00742 41-179 partner limits assumed)": "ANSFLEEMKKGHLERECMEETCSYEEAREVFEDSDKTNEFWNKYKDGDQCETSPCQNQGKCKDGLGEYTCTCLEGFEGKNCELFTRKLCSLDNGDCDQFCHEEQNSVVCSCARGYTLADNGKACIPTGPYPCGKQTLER", "parameters": "method as in Steinert et al., 2022", "details": "500 nM; ref Steinert et al., 2022; cited from earlier work"}, "[3]": {"test": "Hepatic phase II sulfation, human cytosol", "type": "in vitro ADME", "details": "50 µM, 4 h", "procedure": "(§1) Liver microsomes and cytosol were obtained for two organisms, horse and human. Fresh horse liver was purchased locally cut to pieces of ca. 50 g each and frozen in liquid nitrogen. Until further usage, the liver was stored at -80 °C. The preparation of microsomes and cytosol was carried out according to Balk et al. ([Balk et al., 1984]), and the protein content was determined by Bradford assay with bovine serum albumin as a reference ([Bradford, 1976]). Human liver microsomes and cytosol (150 Donors Ultrapool™) were provided by Corning, Inc. (Corning, New York, NY, USA). Besides assay-specific positive controls, all assays included stability controls, moreover, matrix influences were considered. For oxidation, additional non-oxidation controls were included. Each experiment was performed in duplicate. All stated concentrations are final concentration values. The test compounds (acetoxystachybotrylactam acetate-tryptophan 2a, 2b and acetoxystachybotrylactam acetate-tryptamine 3a, 3b ) were extended by the most biologically active derivative previously characterized by our group (acetoxystachybotrylactam acetate-agmatine 4 ) ([Steinert et al., 2022]).\n(§2) For phase II metabolism, potential sulfation and glucuronidation were investigated. For sulfation, the reaction mixture was pipetted as follows: first, ultrapure water was added and mixed with a 1 mM DTT solution (contains DTT, 100 mM phosphate buffer, 100 µM ascorbic acid, pH 7.4). Then, PAPS (100 µM) and the substance of interest (50 µM) were added, which was concluded by the addition of horse/human cytosol (10 mg protein/mL). For glucuronidation, first, ultrapure H2O, phosphate buffer (50 mM) and MgCl2 (5 mM) were added to the reaction vessel, followed by addition of the investigated substance (50 µM), UDPGA (5 µM), and horse/human microsomes (1 mg protein/mL), respectively. For both assays, the final volume was 100 µL which was subsequently incubated for 4 h at 37 °C in darkness. […] After centrifugation (4 °C, 10 min, 15,000 rpm), 150 µL of supernatant was diluted with 850 µL H2O, which was subsequently analyzed by HPLC-qToF-HRMS. […]"}, "[4]": {"test": "Hepatic phase II glucuronidation, human microsomes", "type": "in vitro ADME", "details": "human microsomes, 50 µM, 4 h", "procedure": "as §1\nFor phase II metabolism, potential sulfation and glucuronidation were investigated. For sulfation, the reaction mixture was pipetted as follows: first, ultrapure water was added and mixed with a 1 mM DTT solution (contains DTT, 100 mM phosphate buffer, 100 µM ascorbic acid, pH 7.4). Then, PAPS (100 µM) and the substance of interest (50 µM) were added, which was concluded by the addition of horse/human cytosol (10 mg protein/mL). For glucuronidation, first, ultrapure H2O, phosphate buffer (50 mM) and MgCl2 (5 mM) were added to the reaction vessel, followed by addition of the investigated substance (50 µM), UDPGA (5 µM), and horse/human microsomes (1 mg protein/mL), respectively. For both assays, the final volume was 100 µL which was subsequently incubated for 4 h at 37 °C in darkness. Quenching and protein precipitation was achieved by adding 200 µL of cold MeCN (-20 °C). After centrifugation (4 °C, 10 min, 15,000 rpm), 150 µL of supernatant was diluted with 850 µL H2O, which was subsequently analyzed by HPLC-qToF-HRMS. For both experiments, 50 µM 7-hydroxycumarin served as positive control.\nChromatographic separation and mass spectrometric detection were identical to the parameters already described for the fragmentation experiments for phase I and phase II glucuronidation metabolism. For sulfation, the HPLC-qToF-HRMS was operated in negative ionization mode at -4.5 kV and otherwise identical source parameters as previously described. […]"}, "[5]": {"test": "Hepatic phase I metabolism (oxidation), human microsomes", "type": "in vitro ADME", "details": "10 µM, 90 min", "procedure": "as §1\n(§3) The phase I metabolism was investigated utilizing a NADPH- regenerating system. […] After centrifugation (4 °C, 10 min, 15,000 rpm), 150 µL of supernatant was diluted with 850 µL H2O, which was subsequently analyzed by HPLC-qToF-HRMS. […]"}, "[6]": {"test": "Hepatic phase II sulfation, horse cytosol", "type": "in vitro ADME", "details": "50 µM, 4 h", "procedure": "as §1, §2"}, "[7]": {"tested_on": "plasma coagulation", "parameters": "method as in Steinert et al., 2022", "details": "ref Steinert et al., 2022; cited from earlier work"}, "[8]": {"tested_on": "lung adenocarcinoma cells (A549, CCL-185)", "parameters": "method as in Steinert et al., 2022", "details": "ref Steinert et al., 2022; cited from earlier work"}, "[9]": {"tested_on": "plasma coagulation", "parameters": "method as in Steinert et al., 2022", "details": "ref Steinert et al., 2022; cited from earlier work", "remark": "listed apart in the source"}, "[10]": {"test": "Hepatic phase I metabolism (oxidation), horse microsomes", "type": "in vitro ADME", "details": "10 µM, 90 min", "procedure": "as §1, §3"}, "[11]": {"tested_on": "Human liver carcinoma cells (HepG2, HB-8065)", "parameters": "method as in Steinert et al., 2022", "details": "HepG2; ref Steinert et al., 2022; cited from earlier work"}}}
{"compound": "[H]/N=C(/N)c1ccc(NCc2nc3cc(C(=O)N(CCC(=O)O)c4ccccn4)ccc3n2C)cc1", "note": "[Dabigatran, dabigatran]", "values": [{"measurement": "inhibition of thrombin (positive control)", "setting": "[1]", "value": "98.3 ± 0.1", "unit": "%"}]}
{"compound": "O=C(NC[C@H]1CN(c2ccc(N3CCOCC3=O)cc2)C(=O)O1)c1ccc(Cl)s1", "note": "[rivaroxaban]", "values": [{"measurement": "inhibition of FXa (positive control)", "setting": "[2]", "value": "99.8 ± 0.3", "unit": "%"}]}
{"compound": "acetoxystachybotrylactam acetate-agmatine [Compound 4]", "values": [{"measurement": "metabolism under sulfation conditions, in words", "setting": "[3]", "value": "did undergo metabolism"}, {"measurement": "glucuronidation: conversion and formation of glucuronides, in words", "setting": "[4]", "value": "best conversion"}, {"measurement": "phase I conversion, in words", "setting": "[5]", "value": "fastest among the reaction products to be metabolized"}, {"measurement": "metabolism under sulfation conditions, in words", "setting": "[6]", "value": "did undergo metabolism"}, {"measurement": "plasma coagulation, prothrombin time", "setting": "[7]", "value": "prolonged plasma coagulation"}, {"measurement": "cytotoxicity, in words", "setting": "[8]", "value": "no cytotoxicity"}, {"measurement": "plasma coagulation, activated partial thromboplastin time", "setting": "[9]", "value": "prolonged plasma coagulation"}, {"measurement": "phase I conversion, in words", "setting": "[10]", "value": "fastest among the reaction products to be metabolized"}, {"measurement": "cytotoxicity, in words", "setting": "[11]", "value": "no cytotoxicity"}]}
